Measurements reported in ChEMBL document CHEMBL4665834 (J Med Chem, 2020).

Assays:
[1] = Solubility of compound in water using crystalline form of sample; format: physicochemical
Cytochrome P450 1A2 = Cytochrome P450 1A2 (Homo sapiens, UniProt P05177); assay: Inhibition of CYP1A2 in human liver microsomes using phenacetin as substrate incubated for 15 mins in presence of NADPH generating system by LC-MS/MS analysis; format: ADME
[2] = Apparent permeability in human Caco-2 cells measured after 2 hrs by HPLC analysis; format: ADME, cell-based
[3] = molecular target: Prostaglandin D2 receptor (Homo sapiens, UniProt Q13258); assay: Displacement of [3H]PGD2 from full-length recombinant human DP1 receptor expressed in Chem-1 cell membranes measured after 120 mins by scintillation counting method
[4] = molecular target: Prostaglandin E2 receptor EP2 subtype (Homo sapiens, UniProt P43116); assay: Displacement of [3H]prostaglandin E2 from full-length recombinant human EP2 receptor expressed in HEK293 cell membranes measured after 120 mins by scintillation counting method
[5] = molecular target: Prostaglandin D2 receptor 2 (Homo sapiens, UniProt Q9Y5Y4); assay: Displacement of [3H]PGD2 from full-length recombinant human CRTH2 receptor expressed in CHOK1 cell membranes measured after 120 mins by scintillation counting method; set-up: species or system CHO-K1
[6] = Protein binding in pooled rat plasma assessed as unbound fraction incubated for 6 hrs by LC-MS/MS analysis based equilibrium dialysis method; format: ADME, cell-free
[7] = Drug metabolism in human hepatocytes assessed as formation of hydroxylated and ring-opened pyrrolidine derivative at 1 uM measured after 1 to 4 hrs by LC-MS/MS analysis; format: ADME, cell-based, Hepatocyte; settings: time 1-4 hrs
[8] = Drug metabolism in rat hepatocytes assessed as oxidation at the pyrrolidine ring at 1 uM measured after 1 to 4 hrs by LC-MS/MS analysis; format: ADME, cell-based, Hepatocyte; settings: time 1-4 hrs
[9] = Terminal half life in Balb/c mouse at 1 mg/kg, iv administered as bolus dose by LC-MS/MS analysis; format: ADME, organism-based; settings: in vivo, read-out: beta t1/2 (converted)
[10] = Oral bioavailability in Wistar rat at 3 mg/kg administered via gavage by LC-MS/MS analysis; format: ADME, organism-based; settings: in vivo
[11] = Volume of distribution at steady state in Beagle dog at 0.5 mg/kg, iv administered as 15 mins infusion or 1 mg/kg, po administered via gavage by LC-MS/MS analysis; format: ADME, organism-based, Canis lupus familiaris; settings: in vivo, read-out: Vdss
[12] = Terminal half life in Beagle dog at 0.5 mg/kg, iv administered as 15 mins infusion by LC-MS/MS analysis; format: ADME, organism-based, Canis lupus familiaris; settings: in vivo, read-out: beta t1/2 (converted)

Sequence of Cytochrome P450 1A2 (P05177 whole entry): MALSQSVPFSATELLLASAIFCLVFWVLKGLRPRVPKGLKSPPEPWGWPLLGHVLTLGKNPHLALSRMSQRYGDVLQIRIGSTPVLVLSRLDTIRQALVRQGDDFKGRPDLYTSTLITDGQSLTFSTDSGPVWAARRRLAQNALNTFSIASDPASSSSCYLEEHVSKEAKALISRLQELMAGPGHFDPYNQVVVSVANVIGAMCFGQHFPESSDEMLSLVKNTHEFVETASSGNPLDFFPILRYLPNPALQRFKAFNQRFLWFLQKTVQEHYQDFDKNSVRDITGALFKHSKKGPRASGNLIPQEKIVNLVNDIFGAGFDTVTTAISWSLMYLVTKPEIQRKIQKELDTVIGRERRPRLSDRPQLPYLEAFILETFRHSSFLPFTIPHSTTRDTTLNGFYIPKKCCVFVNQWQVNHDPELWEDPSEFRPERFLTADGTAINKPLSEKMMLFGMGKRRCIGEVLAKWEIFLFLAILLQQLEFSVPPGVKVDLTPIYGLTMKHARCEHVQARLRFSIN
Sequence of Prostaglandin D2 receptor (Q13258 whole entry): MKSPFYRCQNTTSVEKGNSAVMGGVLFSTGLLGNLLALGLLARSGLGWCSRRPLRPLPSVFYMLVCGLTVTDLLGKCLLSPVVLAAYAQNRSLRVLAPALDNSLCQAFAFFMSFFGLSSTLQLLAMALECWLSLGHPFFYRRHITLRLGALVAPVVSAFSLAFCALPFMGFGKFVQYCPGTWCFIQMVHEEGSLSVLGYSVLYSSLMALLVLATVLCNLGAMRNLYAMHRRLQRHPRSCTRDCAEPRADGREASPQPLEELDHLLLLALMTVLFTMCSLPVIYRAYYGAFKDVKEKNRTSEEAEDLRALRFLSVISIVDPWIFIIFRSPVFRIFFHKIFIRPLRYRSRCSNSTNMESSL
Sequence of Prostaglandin E2 receptor EP2 subtype (P43116 whole entry): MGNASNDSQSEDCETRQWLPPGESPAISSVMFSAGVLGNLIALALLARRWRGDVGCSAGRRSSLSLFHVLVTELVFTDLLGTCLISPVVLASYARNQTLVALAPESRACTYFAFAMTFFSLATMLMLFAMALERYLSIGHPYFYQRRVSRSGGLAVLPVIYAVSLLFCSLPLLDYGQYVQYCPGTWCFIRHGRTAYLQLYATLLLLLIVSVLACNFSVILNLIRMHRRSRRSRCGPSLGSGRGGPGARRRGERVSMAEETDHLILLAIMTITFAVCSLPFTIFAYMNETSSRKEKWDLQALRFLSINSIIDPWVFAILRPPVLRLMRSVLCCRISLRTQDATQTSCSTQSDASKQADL
Sequence of Prostaglandin D2 receptor 2 (Q9Y5Y4 whole entry): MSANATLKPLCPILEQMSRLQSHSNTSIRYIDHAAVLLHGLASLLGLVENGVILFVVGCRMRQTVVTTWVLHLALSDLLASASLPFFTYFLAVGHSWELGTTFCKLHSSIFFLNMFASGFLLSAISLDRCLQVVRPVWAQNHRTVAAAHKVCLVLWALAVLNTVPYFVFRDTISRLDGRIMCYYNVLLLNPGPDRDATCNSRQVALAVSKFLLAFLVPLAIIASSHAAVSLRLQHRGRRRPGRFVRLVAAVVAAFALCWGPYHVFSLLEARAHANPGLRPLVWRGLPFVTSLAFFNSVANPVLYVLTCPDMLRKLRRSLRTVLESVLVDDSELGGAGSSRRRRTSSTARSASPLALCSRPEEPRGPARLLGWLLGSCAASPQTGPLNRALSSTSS

solubility [1]: < 1 µg/mL | IC50 (Cytochrome P450 1A2): > 20 µM | Papp at 2 h [2]: 26.7 ×10⁻⁶ cm/s | IC50 [3]: > 10 µM | IC50 [4]: > 10 µM | IC50 [5]: > 10 µM | fraction unbound at 6 h [6]: < 0.01 | Drug metabolism [7]: Metabolite_Detected | Drug metabolism [8]: Metabolite_Detected | half-life [9]: 3.4 h | bioavailability [10]: 91% | Vd [11]: 1.8 L/kg | half-life [12]: 14 h
SMILES: Cc1c(N2CCCC2)nc2ccc(Br)cc2c1C(=O)NC[C@H](CCC(=O)O)c1ccccc1Cl [BAY-6672]
